Experimental data taken from patent US20130165520A1, “Hybrid Molecule Having Mixed Retinoic Acid Receptor Agonism and Histone Deacetylase Inhibitory Properties” (priority 2010, published 2013).

Key:
[1] = tested on: SK-MEL-28; assay: cells; settings: Homo sapiens, SK-MEL-28, 48 h
[2] = tested on: MOLT-4; settings: MOLT-4 (Leukemia); 48 h
[3] = tested on: LOX IMVI; assay: cells; settings: Homo sapiens, 48 h
[4] = tested on: OVCAR-4; assay: cells; settings: Homo sapiens, OVCAR-4, 48 h
[5] = tested on: NCI-H226; assay: cells; settings: Homo sapiens, NCI-H226, 48 h
[6] = tested on: OVCAR-8; settings: 48 h
[7] = tested on: ACHN; assay: cells; settings: Homo sapiens, 48 h
[8] = tested on: CCRF-CEM; settings: CCRF-CEM (Leukemia); 48 h
[9] = tested on: SK-MEL-28; settings: SK-MEL-28 (Melanoma); 48 h
[10] = tested on: M14; settings: M14 (Melanoma); 48 h
[11] = tested on: HCC-2998; assay: cells; settings: Homo sapiens, HCC 2998, 48 h
[12] = tested on: SNB-75; settings: SNB-75 (CNS); 48 h
[13] = tested on: non-tumorogenic immortalized mammary 184b5 cells; assay: Cell growth measurement
[14] = tested on: NCI-H460; settings: NCI-H460 (Non-Small cell lung cancer); 48 h
[15] = tested on: K-562; assay: cells; settings: Homo sapiens, K562, 48 h
[16] = tested on: SK-OV-3; settings: 48 h
[17] = tested on: NCI-H522; settings: NCI-H522 (Non-Small cell lung cancer); 48 h
[18] = tested on: HOP-62; assay: cells; settings: Homo sapiens, HOP-62, 48 h
[19] = tested on: 786-0; assay: cells; settings: Homo sapiens, 786-0, 48 h
[20] = tested on: NCI/ADR-RES; assay: cells; settings: Homo sapiens, 48 h
[21] = tested on: SK-MEL-5; settings: SK-MEL-5 (Melanoma); 48 h
[22] = tested on: CAKI-1; settings: CAKI-1 (Renal); 48 h
[23] = tested on: SNB-75; assay: cells; settings: Homo sapiens, SNB-75, 48 h
[24] = tested on: BT-20; assay: Cell growth measurement; assay type: cell-based; settings: BT-20 (ER-negative, HER2-negative, RA-insensitive)
[25] = tested on: SF-268; settings: SF-268 (CNS); 48 h
[26] = tested on: HOP-92; assay: cells; settings: Homo sapiens, HOP-92, 48 h
[27] = tested on: T-47D; settings: T-47D (Breast); 48 h
[28] = tested on: A549/ATCC; assay: cells; settings: Homo sapiens, A549, 48 h
[29] = tested on: OVCAR-5; assay: cells; settings: Homo sapiens, OVCAR-5, 48 h
[30] = tested on: UACC-62; assay: cells; settings: Homo sapiens, UACC-62, 48 h
[31] = tested on: acetylated histone H4 and p53 in MDA-MB-231 cells; assay: Western blotting of acetylated histone H4 and p53; settings: 10 μM, 18-24 h time course
Protocol: The potential of 3 to act as an HDACi and cause deacetylation of a synthetic substrate or hyperacetylation of HDACs target proteins was subsequently assessed. […] Intracellular HDACi activity was assessed by measuring levels of acetylated histone H4 and tumor suppressor protein p53 in MDA-MB-231 cells by Western blotting.
Western Blotting: MDA-MB-231 cells were plated in DMEM 5% FBS-T at 600 k cells per well in 6-well plates. […] Laemmli buffer at various time points. Protein concentration of the extracts was analyzed by BioRad DC protein assay. 20 μg of proteins per condition were loaded on an SDS-PA gel and transferred to a nitrocellulose membrane for blotting. Blotting was done using ABCAM primary antibodies EP356 (anti-p53) T3526 (anti-Tubulin) and AB1761 (anti-acH4).

[32] = tested on: DU-145; assay: cells; settings: Homo sapiens, DU-145, 48 h
[33] = tested on: SNB-19; settings: SNB-19 (CNS); 48 h
[34] = tested on: KM12; assay: cells; settings: Homo sapiens, KM12, 48 h
[35] = tested on: NCI-H226; settings: NCI-H226 (Non-Small cell lung cancer); 48 h
[36] = tested on: ACHN; settings: ACHN (Renal); 48 h
[37] = tested on: KM12; settings: KM12 (Colon); 48 h
[38] = tested on: SF-295; assay: cells; settings: Homo sapiens, SF-295, 48 h

CC1(C)CCC(C)(C)c2cc(-c3ccc4cc(C(=O)NO)ccc4c3)ccc21 [hybrid 3]
GI50 [1]: 1810 nM
CC50 ([1]; read-out: LC50): 21700 nM
TGI [2]: 1460 nM
GI50 [3]: 372 nM
CC50 ([3]; read-out: LC50): 4190 nM
GI50 [4]: 533 nM
CC50 ([4]; read-out: LC50): 29100 nM
GI50 [5]: 1220 nM
CC50 ([5]; read-out: LC50): 18800 nM
TGI [6]: 1770 nM
GI50 [7]: 393 nM
CC50 ([7]; read-out: LC50): 5090 nM
TGI [8]: 1950 nM
TGI [9]: 5500 nM
TGI [10]: 2490 nM
GI50 [11]: 1090 nM
CC50 ([11]; read-out: LC50): 5750 nM
TGI [12]: 6100 nM
effect on growth of non-tumorogenic cells [13]: only minimal effects
TGI [14]: 1070 nM
GI50 [15]: 399 nM
CC50 ([15]; read-out: LC50): 5510 nM
TGI [16]: 11700 nM
TGI [17]: 3590 nM
GI50 [18]: 616 nM
CC50 ([18]; read-out: LC50): 6180 nM
GI50 [19]: 1100 nM
CC50 ([19]; read-out: LC50): 5120 nM
GI50 [20]: 502 nM
CC50 ([20]; read-out: LC50): 5340 nM
TGI [21]: 2310 nM
TGI [22]: 1030 nM
GI50 [23]: 1740 nM
CC50 ([23]; read-out: LC50): 24900 nM
effect on cell growth [24]: active
TGI [25]: 1850 nM
GI50 [26]: 1930 nM
CC50 ([26]; read-out: LC50): 27200 nM
TGI [27]: 4030 nM
GI50 [28]: 473 nM
CC50 ([28]; read-out: LC50): 7800 nM
GI50 [29]: 4120 nM
CC50 ([29]; read-out: LC50): 46100 nM
GI50 [30]: 512 nM
CC50 ([30]; read-out: LC50): 5170 nM
hyperacetylation of histone H4 and p53 [31]: clear hyperacetylation
GI50 [32]: 622 nM
CC50 ([32]; read-out: LC50): 4680 nM
TGI [33]: 2360 nM
GI50 [34]: 616 nM
CC50 ([34]; read-out: LC50): 4610 nM
TGI [35]: 4190 nM
TGI [36]: 1490 nM
TGI [37]: 1880 nM
GI50 [38]: 385 nM
CC50 ([38]; read-out: LC50): 6110 nM
